Results as given in patent US20080153872A1, “Bis-(Coumarin) Compounds With Anti-Inflammatory Activity” (priority 2005, published 2008).

Key:
Human ERK1 = molecular target: T1, Human ERK1 (Homo sapiens, UniProt P27361); test: Human protein serine/threonine kinase, ERK1, assay; type: biochemical; conditions: 10 μM
T1 construct: made in house; host or cells: Escherichia coli
Method: (§1) All compounds were dissolved in dimethyl sulfoxide (DMSO). Final concentration of the DMSO in all tests was 1% (v/v). Inhibition in all tests is considered preferred if it exceeds 50% at 10 μM concentration (or less).
Human ERK1 is expressed in Escherichia coli and purified. Compounds are pre-incubated in MOPS/EGTA buffer with pervanadate, DTT and γ-[^32P]-ATP with recombinant enzyme for 15 minutes at 37° C. Substrate (purified myelin basic protein, MBP) is added, followed by incubation at 37° C. for 30 minutes. Enzyme activity is measured by quantitation of [^32P]-MBP and inhibition is calculated from specific radioactivity. ERK1 is a serine/threonine kinase activated in MAPK (mitogen activated kinase) pathway. ERK1 is implicated in a high proportion of human cancers, including Hodgkin disease. ERK1 is involved in processes of cell growth, division and inflammation.

Balb/C mice = test: Ovalbumin induced pulmonary eosinophilia in mice; type: in vivo, mouse; conditions: OVA sensitized and challenged mice; i.n., i.p. or per os
Method: Male Balb/C mice with a body weight of 20-25 g are randomly divided into groups, and sensitized by an i.p. injection of ovalbumin (OVA, Sigma) on day zero and day fourteen. On the twentieth day, the mice are subjected to a challenge test by i.n. (intranasal) application of OVA (positive control or test groups) or PBS (negative control). The compounds are administered daily i.n., i.p. or per os in different doses starting 2 days before the challenge and up to the completion of the test. Compounds are administered as suspension either in PBS, methyl cellulose or carboxymethyl cellulose with addition od DMSO (up to 5% of the total volume). 48 hours after i.n. application of OVA, the animals are then anaesthetized to obtain bronchoalveolar lavage fluid (BALF), which is used to determine total protein concentration as well as concentrations of cytokines such as IL-1β and TNF-α, absolute number of cells, and percentage of eosinophils in BALF. Bronchoalveolar lavage (BAL) is performed by infusing 1 mL of PBS divided into 3 separate volumes (0.4, 0.3 and 0.3 ml) through trachea into the lungs. The fluid is immediately withdrawn and the cell suspension stored into previously prepared 1.5 mL Eppendorf tube. Bronchoalveolar lavage fluid (BALF) is then centrifuged at […] for 5 min (4° C.). Cells are resuspended in 700 μL of PBS. To prepare cytospins, 320 μL of suspension is centrifuged at 250 rpm for 10 min (Cytospin-3, Shandon Instruments). Cells are stained with Dif-Quik (Dade Behring) to determine percentage of eosinophils by counting of at least 100 cells. The remaining resuspended cells are used for total cell count in BALF analysis (Sysmex SF 3000). Finally, lungs are sampled and stored into 10% formalin for pathohistological evaluation of eosinophil and mononuclear infiltrate. Accumulation of eosinophils and mononuclear cells in peribronchial (PB) and perivascular (PV) lung tissue areas and in alveolar spaces is monitored.
Results can be expressed as (I) decrease of absolute cell number per mL in BALF, (II) decrease of number of eosinophils per mL in BALF, (III) reduction of relative number (percentage) of eosinophils in BALF, (IV) reduction of cytokine concentrations in BALF, as well as (V) suppression of accumulation of eosinophils and mononuclear cells in peribronchial (PB) and perivascular (PV) lung tissue areas and in alveolar spaces by pathohistological scoring of treated animals compared to positive control (OVA stimulated, but untreated animals).
Fluticasone and beclomethasone are used as standard anti-inflammatory substances, and compared for ability to inhibit eosinophilia to the negative and positive controls.

IL-5 = test: Inhibition of IL-5 production by ConA stimulated mouse splenocytes; type: cell-based; conditions: 25 μM
Method: (§2) Spleen cell suspension was obtained from BALB/c mice and lymphocytes separated by gradient density centrifugation on Histopaque 1.083 on 400 g for 30 minutes. They were washed once in medium, counted and their number adjusted as 3×10^5/200 μL/well in 96 flat bottomed culture plate in RPMI supplemented with 10% fetal bovine serum. Cells were stimulated on cytokine production by adding concanavalinA (ConA) at 5 μg/mL final concentration. Unstimulated cells were cultured in medium alone. Stock solution was prepared out of testing compounds as 10 mM in DMSO. Final concentrations made in cell culture medium were tested when they had been added together with ConA. After 72 hours incubation period cell culture supernatants were collected. In each sample IL-4, IL-5, IL-10 and IFNγ were detected and quantified using enzyme linked immunosorbent assay (ELISA) specific for pointed cytokines (R&D Systems).
(§3) To calculate results, standard curve was made out of measured OD values for recombinant protein in known concentrations. Cytokine content in unknown samples was calculated out of OD values extrapolated from the standard curve.
(§4) Percentage of inhibition is calculated using formula:
(§5) % Inhibition=(1−cytokine concentration of sample/cytokine concentration of positive control)×100.

Tachykinin NK2 receptor = molecular target: T2, Tachykinin NK2 receptor (Homo sapiens, UniProt P21452); test: Human tachykinin NK2 receptor assay (SR-48968 competition); type: binding; conditions: 10 μM concentration; CHO-K1, competition with SR-48968
T2 construct: expressed in transfected cells; host or cells: CHO-K1
T2 sequence (P21452 1-398): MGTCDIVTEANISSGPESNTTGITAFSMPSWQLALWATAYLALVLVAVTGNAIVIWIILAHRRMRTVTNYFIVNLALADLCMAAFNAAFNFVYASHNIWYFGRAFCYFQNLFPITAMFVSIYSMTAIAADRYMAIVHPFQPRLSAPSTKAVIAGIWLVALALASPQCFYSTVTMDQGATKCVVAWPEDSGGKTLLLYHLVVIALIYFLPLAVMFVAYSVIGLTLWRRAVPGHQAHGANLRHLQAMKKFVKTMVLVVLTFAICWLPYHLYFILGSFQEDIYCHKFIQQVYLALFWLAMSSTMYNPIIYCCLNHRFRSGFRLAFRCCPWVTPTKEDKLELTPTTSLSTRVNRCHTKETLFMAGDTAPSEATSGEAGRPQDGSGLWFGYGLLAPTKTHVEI
Method: as §1
Tachykinin NK2 receptor is expressed in Chinese hamster ovary cell line, clone K1 (CHO-K1). Substances and radioactive competitor (tritium labelled SR-48968) are incubated with cells in HEPES/NaOH buffer for 90 minutes at 25° C. in the presence of manganese ions. Levels of the bound SR-48968 is measured by scintillation counting, and competition is calculated from the total amount of the bound SR-48968 in treated and control samples. Tachykinin receptors are involved in physiological and pathological processes of inflammation and pain. Tachykinin NK2 has been identified as a target for intervention in asthma, GI disease, irritable bowel syndrome and pancreatitis.

IL-10 = test: Inhibition of IL-10 production by ConA stimulated mouse splenocytes; type: cell-based; conditions: 25 μM
Method: as §2, §3, §4, §5

T1 sequence (P27361 whole entry): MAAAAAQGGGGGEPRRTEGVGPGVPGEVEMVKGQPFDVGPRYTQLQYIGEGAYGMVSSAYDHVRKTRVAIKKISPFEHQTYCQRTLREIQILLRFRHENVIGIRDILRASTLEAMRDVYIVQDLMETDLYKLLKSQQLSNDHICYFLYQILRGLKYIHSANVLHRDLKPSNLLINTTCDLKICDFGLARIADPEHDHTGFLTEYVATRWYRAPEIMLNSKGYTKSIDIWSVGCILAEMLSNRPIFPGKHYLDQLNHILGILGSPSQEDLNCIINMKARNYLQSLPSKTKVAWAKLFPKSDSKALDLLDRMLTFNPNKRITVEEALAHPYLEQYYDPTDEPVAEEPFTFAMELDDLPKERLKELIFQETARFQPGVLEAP

Structure (SMILES) | inhibition of human ERK1 activity (Human ERK1) | reduction of percentage of eosinophils and/or their total number in BALF and/or by histological scoring (Balb/C mice) | inhibition of IL-5 production (IL-5) | inhibition of NK2 activity (Tachykinin NK2 receptor) | inhibition of IL-10 production (IL-10)
CC(=O)C(c1c(O)c2cccc(C(C)C)c2oc1=O)c1c(O)c2cccc(C(C)C)c2oc1=O [Example 19] | significantly inhibited | statistically significant reduction | significantly inhibited | significant inhibition | 
CC(C)c1cccc2c(O)c(C(CO)c3c(O)c4cccc(C(C)C)c4oc3=O)c(=O)oc12 [Example 30] |  | statistically significant reduction | significantly inhibited |  | significantly inhibited
CC(C)c1cccc2c(O)c(C(C(=O)OCCO)c3c(O)c4cccc(C(C)C)c4oc3=O)c(=O)oc12 [Example 50] |  | statistically significant reduction |  | significant inhibition | 
